Values of other authors, collected in patent US20230165895A1, “COMPOSITIONS AND METHODS FOR EYE HEAL TH COMPRISING AREDS AND VITAMIN B COMPLEX” (BAUSCH + LOMB IRELAND LIMITED, priority 2020, published 2023).

Conditions: no test, species or source described; stated next to the RDA

Cc1c(C)c2c(c(C)c1O)CC[C@@](C)(CCC[C@H](C)CCC[C@H](C)CCCC(C)C)O2 [vitamin E, alpha tocopherol]
levels at which no adverse effects have been observed: ≤ 800.0 mg
